Test results taken from patent US20080207502A1, “Anti-Angiogenic Peptides and Methods of Use Thereof” (SOPHERION THERAPEUTICS, INC., priority 2004, published 2008).

How the values were obtained:
B16 melanoma tumor = test: Subcutaneous B16 melanoma tumor model in vivo; design: species or system mouse; details: 20 mg/kg daily IP, vs untreated controls, FIG. 12
Experimental: Because of the importance of the angiogenic process for tumorigenesis, miniproteins as described herein, were hypothesized to show good anti-tumor activity. The peptides of the invention were tested in an in vivo model of anti-tumor activity. This model compares the growth of sub cutaneous B16 melanoma tumor in vivo either untreated or treated with various amount of miniproteins described in this application. This model is widely accepted in the art as a model to test the anti-tumor activity of compounds that inhibit tumor growth because they have anti-angiogenic activity.
Male C57BL/6 mice were obtained with a mean body weight of 20±2 g. Mouse B16-F1 melanoma cells were implanted subcutaneously (5×10^5 cell per animal). Peptides (formulated in water) were administered ip daily at the amount indicated starting the day after cells injection. In general, tumors became palpable around 9 days after injection of cells. Tumor were then measured every 2 days.

[1] = test system: human dermal microvasculature endothelial cells; test: bFGF mediated survival/proliferation in human dermal microvasculature endothelial cells; assay type: cell-based; details: 30, 100, and 200 μg/ml, FIG. 8
Experimental: (§1) The anti-angiogenic activities of the peptides were tested by measuring the level of inhibition of VEGF and bFGF mediated survival/proliferation of Bovine Retinal Endothelial Cells (BRE), Human Dermal Microvasculature Endothelial Cells, and Human Umbilical Vein Endothelial Cells, all of which are standard cell lines used to test anti-angiogenic compounds.
(§2) In all cases, after 72 hours incubation, the amount of live cells in each well was measured with the WST1 assay (Roche).
(§3) In a further experiment, the anti-angiogenic activity of peptide ST100,061 (SEQ ID NO.: 3), a derivative of ST100,032 (SEQ ID NO.: 1), at concentrations of 30, 100, and 200 μg/ml was tested by measuring the level of inhibition of VEGF and bFGF mediated survival/proliferation in human dermal microvasculature endothelial cells.

[2] = test system: human dermal microvasculature endothelial cells; test: VEGF mediated survival/proliferation in human dermal microvasculature endothelial cells; assay type: cell-based; details: 30, 100, and 200 μg/ml, FIG. 8
Experimental: as §1, §2, §3

[3] = Biological activity of D-amino acid versions of ST100,038 (assay not specified); details: ST100,045 tested against ST100,059 and a control
Experimental: D-amino acid peptides can be made by generating a D-amino acid peptide with the same sequence as a L-amino acid peptide or by preparing a retro inverso form of a peptide. ST100,045 (SEQ ID NO.: 31) has the same sequence as ST100,038 (SEQ ID NO.: 29) was tested against ST100,059 (SEQ ID NO.: 30) which is the retro inverso version of ST100,038 and a control.

[4] = Heparin binding activity by liquid chromatography on Hi Trap Heparin HP column (NaCl elution); details: step gradient 500-1000 mM NaCl in 10 mM NaH2PO4 pH 7
Source text: Liquid chromatography was used to determine the relative levels of heparin binding activity of the individual heparin binding domains and of the anti-angiogenic miniproteins that contains them. In this assay, the strength of the heparin binding activity is proportional to the amount of NaCl that is required to elute the peptide bound to the heparin column. Peptides with low binding activity are eluted with lower NaCl concentration, whereas higher concentrations of NaCl are required for peptides with higher binding activity.
Hi Trap Heparin HP column (1 ml, Amersham Biosciences) was equilibrated with 10 column volumes (CV) of equilibration (EQ) buffer=10 mM NaH2PO4pH 7. All buffers were loaded onto columns via syringes. 500 μl fractions are collected (flow rate=1 ml/minute). 500 μg of peptide (1 mg/ml, resuspended in EQ buffer) was added to each column and the flow through was collected for analysis. The columns were then washed with 3 CV of EQ buffer. Peptides are then eluted with a step gradient of 500, 625, 750, 875 mM NaCl in EQ buffer, 2 CV per each step. A final step of 3 CV of 1000 mM NaCl in EQ buffer was collected in 500 μl fractions. The A210 nm was measured using EQ and elution buffers as blanks.

[5] = test system: Bovine Retinal Endothelial Cells (BRE); test: VEGF-mediated survival/proliferation of BRE cells (WST1); assay type: cell-based; details: increasing doses, FIG. 5
Experimental: as §1
Bovine retinal endothelial (BRE) cells were maintained in Cambrex EG2 media. For non-adherent cell assays, on day one cells were starved for either 6 hours or overnight, then trypsinized and plated in 96-well plates in 100 μl of Optimem plus 1% fetal bovine serum (FBS). One hundred μl of Optimem plus 1% FBS was added to the wells containing, where appropriate, VEGF to a final concentration of 25 ng/ml, and the various peptides to final concentrations as described. For adherent cells, cells were plated in 96-well plates in complete media, allowed to adhere overnight, washed in starvation media (Optimem plus 1% FBS) and then starved during the day. At the end of the day, 100 μl of Optimem plus 1% FBS was added to the wells containing, where appropriate, VEGF to a final concentration of 25 ng/ml and the various peptides to final concentrations as described.
as §2

[6] = test system: RPMI-8226 human myeloma xenografts; test: RPMI-8226 human myeloma subcutaneous xenograft model in scid mice; assay type: in vivo; details: vs untreated controls, FIG. 16
Experimental: Anti-tumor efficacy of test peptides was evaluated against RPMI-8226 human myeloma xenografts implanted subcutaneously (sc) in severe compromised immunodeficient (scid) mice.
Studies generally consisted of randomly-assigned groups of 8 or 10 mice per group, which were implanted sc with myeloma fragments (30-40 mg). In addition to groups tested with test peptides, studies usually included a vehicle-treated control group and a positive control group treated with an agent known to be active in the RPMI-8226 model. In one type of schedule, mice were treated IP with either vehicle or test peptides starting one day after tumor implantation (implantation day defined as Day 0). Test peptides and vehicle were generally administered IP daily for 3-4 weeks.
Dosing solutions of the test peptides were prepared weekly and kept at −20° C. between injections. […] Each tumor was measured by caliper in two dimensions and converted to tumor mass using the formula for a prolate ellipsoid (a X b^2/2), where a is the longer dimension and b is the smaller dimension, and assuming unit density (1 mm^3=1 mg). Tumor measurements were recorded twice weekly. Body weights were also recorded twice weekly. Anti-tumor activity was assessed by the delay in tumor growth of the treated groups in comparison to the vehicle-treated control group, partial and complete regressions, and tumor-free survivors. […]

L1210 murine leukemia = L1210 murine leukemia intravenous model in vivo; design: species or system mouse; details: dosed IP, DBA/2 mice, FIG. 15a
Experimental: Antitumor activity of test peptides, administered intraperitoneally (IP), were evaluated against L1210 murine leukemia cells implanted intravenously (IV) in DBA/2 mice.
Studies generally consisted of randomly-assigned groups of 8 mice per group, which were inoculated IV with 1×10^5 cells per mouse from an in vivo leukemia cell line. In addition to groups tested with test peptides, studies usually included a vehicle-treated control group and a positive control group treated with an agent known to be active in the L1210 leukemia model. Starting one day after tumor inoculation (inoculation day defined as Day 0), mice were treated IP with either vehicle or test peptides in various schedules. Generally this consisted of treatment every other day for approximately 1 week (e.g., Days 1, 3, 5 and 7). A positive agent (e.g., cyclophosphamide) was usually given as a single IP injection on Day 1. All dosing solutions were prepared on each day of treatment. Survival was monitored daily and body weights were measured twice weekly. Anti-tumor activity was assessed by the increase in lifespan of the treated groups in comparison to the vehicle-treated control group. Studies with the L1210 leukemia model were limited to 30 days.

[7] = test system: mouse leukemia L1210 cells; test: Tumor cell proliferation (WST-1), L1210; assay type: cell-based; details: FIG. 11
Experimental: Peptides to be tested were prepared at a stock concentration of 10 mM in sterile phosphate buffered saline. Cancer cell lines obtained from the American Type Culture Collection (MG-63, HT1080, A498, BxPC3, 786-0, PC-3, B16F1, B16F10, P388D1, Jurkat, MOLT4, THP-1, U-937, L1210, RPMI 8226, NCI H929, U266B1, K562) were cultured under appropriate conditions as described in the literature. Cell culture media and reagents were obtained from ATCC (Manassas, Va.), Invitrogen (Carlsbad, Calif.) or Mediatech (Herndon, Va.). Exponentially growing cultures were used for cell proliferation assays. Adherent cells were plated at a concentration of 100000 cells per milliter in growth media overnight (18-24 h) and treated the next day in a low serum media (growth media with 1% FBS for MG-63, HT1080, A498, BxPC3, PC-3, B16F1, B16F10. 786-0 cells were treated in media with 5% FBS). Suspension cell lines (P388D1, Jurkat, MOLT4, THP-1, U-937, L1210, RPMI 8226, NCI H929, U266B1, and K562) were diluted to a concentration of 100,000 cells per ml and treated on the same day with peptides. Peptides were diluted in treatment media and cells were treated for 48 or 72 hours depending on the cell line. Each dose was tested in triplicate for each experiment, and experiments were repeated for a minimum of three discrete times. After incubation, the relative number of cells was determined using WST-1 (Roche Applied Science). A 9.5 μl aliquot of WST-1 was added to each well. The plate was immediately read at 440 nm using a Bio-Tek PowerWave XS microplate reader, incubated for 2-3 hours at 37° C. and then read again. Cell proliferation was determined as the percent of the control cell proliferation. The absorbance of each well at time 0 was subtracted from the value of the final reading. Afterwards the blank values were averaged and subtracted from each test and control value. Finally, each test absorbance was divided by the average of the control absorbances and multiplied by 100 to obtain the percent of control. […]

[8] = test system: Human Umbilical Vein Endothelial Cells; test: bFGF-mediated survival/proliferation of human umbilical vein endothelial cells (WST1); assay type: cell-based
Experimental: as §1
Human umbilical cord endothelial (HUVEC) cells were maintained in Cambrex EGM-2MV media. On day one, cells were starved overnight in 1% FBS in M200 media (Cascade Biologicals). The morning after, the media were replaced with serum-free media (control) or media containing 25 ng/ml of human VEGF165 and the various peptides to final concentrations as described.
as §2

| [NaCl] for elution [4] [mM] | Sequence | inhibition of tumor growth (B16 melanoma tumor) | inhibition of bFGF mediated survival/proliferation [1] | inhibition of VEGF mediated survival/proliferation [2] | biologically active [3] | inhibition of VEGF stimulation [5] | inhibition of tumor growth ([6]; 100 mg/kg daily IP) | mice (cured mice) survived longer than 30 days (L1210 murine leukemia) | survival (L1210 murine leukemia) | blocked cell proliferation or induced cell death [7] | inhibition of tumor growth ([6]; 25 mg/kg daily IP) | inhibition of bFGF mediated survival ([8]; compared with ST100,061, FIG. 9) | inhibition of bFGF mediated survival ([8]; comparison of several peptides, FIG. 10) |
| --- | --- | --- | --- | --- | --- | --- | --- | --- | --- | --- | --- | --- | --- |
|  | PYDGRGDSVVYGLRKKKAARGRRAARGRR (listed as Homo sapiens) [ST100,061, a derivative of ST100,032] | may be less active | effective in inhibiting both VEGF and bFGF | effective in inhibiting both VEGF and bFGF |  |  |  |  |  |  |  |  |  |
| 0 | PSQSSHPPLSTA (listed as Homo sapiens) [ST100,059] | clearly inhibit tumor growth |  |  | biologically active | inhibited with increasing doses | does not inhibit tumor growth |  |  |  |  |  |  |
|  | RRGRAARRGRAAKKKRLGYVVSDGRGDYP [ST100,064] |  |  |  |  |  |  | Sixty to eighty percent | statistically significant increases in survival | able to block cell proliferation and induce cell death | able to inhibit tumor growth | as effectively as ST100,061 | the most active in inhibiting bFGF stimulation |
